In ChEMBL document CHEMBL6134918, “Novel Indole and Pyrrolopyridine Derivatives as GPR17 Modulators for Treating Multiple Sclerosis” (ACS Med Chem Lett, 2025) one finds IC50 data, which are given here for 6 compounds.

A word on the pIC50: it is the IC50 on a negative log10 scale, so that one unit is a factor of ten. Read a high pIC50 as a small IC50.

The target in the assay is Uracil nucleotide/cysteinyl leukotriene receptor (Homo sapiens, UniProt Q13304). Nature of the assay: Inhibition of full length GPR17 (unknown origin) stably expressed in human 1321N1 cells incubated for 15 mins by cAMP based HTRF assay. It is filed as functional, cell-based. (TR-FRET usually uses a lanthanide donor and a delayed reading to cut background.)

Each structure is given as a SMILES string. pIC50: −log10 of the molar value. Some results are limits rather than exact numbers.

Uracil nucleotide/cysteinyl leukotriene receptor, sequence (Q13304 whole entry): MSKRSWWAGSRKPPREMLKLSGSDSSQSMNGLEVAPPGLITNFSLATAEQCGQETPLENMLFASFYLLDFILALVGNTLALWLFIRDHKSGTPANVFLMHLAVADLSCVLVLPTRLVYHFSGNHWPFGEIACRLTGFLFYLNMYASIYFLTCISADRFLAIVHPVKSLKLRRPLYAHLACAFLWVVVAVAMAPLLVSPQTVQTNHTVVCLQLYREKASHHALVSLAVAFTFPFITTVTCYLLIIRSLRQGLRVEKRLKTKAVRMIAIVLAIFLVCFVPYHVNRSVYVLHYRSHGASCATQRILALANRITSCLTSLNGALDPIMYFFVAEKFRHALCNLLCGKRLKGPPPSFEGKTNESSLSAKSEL

The compound `N#Cc1c(NS(=O)(=O)c2c[nH]c3cc(Cl)ccc23)cnn1CCCl` had a negative logarithm of the IC50 (pIC50) of over 7.00.

`N#Cc1c(NS(=O)(=O)c2c[nH]c3cc(Cl)ccc23)cnn1CCC(F)(F)F` had a negative-log IC50 (pIC50) of over 7.00.

In turn, `Cc1snc(NS(=O)(=O)c2c[nH]c3cc(Cl)ccc23)c1Cl` showed a pIC50 of over 7.00.

Turning to `Cc1onc(NS(=O)(=O)c2c[nH]c3cc(Cl)c(Cl)cc23)c1Cl`, the negative logarithm of the IC50 (pIC50) was over 7.00.

Turning to `CCCn1ncc(NS(=O)(=O)c2c[nH]c3cc(Cl)ccc23)c1C#N`, the negative logarithm of the IC50 (pIC50) is over 7.00.

Consider `O=S(=O)(Nc1ncc(C(F)(F)F)s1)c1c[nH]c2cc(Cl)ccc12`, for which the pIC50 was over 7.00.
